# Measurements reported in PMC7873477, “Fermentative Production of L-2-Hydroxyglutarate by Engineered Corynebacterium glutamicum via Pathway Extension of L-Lysine Biosynthesis” (Frontiers in Bioengineering and Biotechnology, 2021).
# Tests used:
# CsiD (HEGluA) = molecular target: T1, CsiD (HEGluA) (Escherichia coli, UniProt P76621); assay: L-2HG formation by engineered C. glutamicum, HPLC of supernatant; format: cell-based, Corynebacterium glutamicum; details: whole cells, endogenously formed glutarate; Fe(II) and 2-oxoglutarate dependent; 96 h
# T1 construct: gene glaH; untagged, from pVWEx1-ldcC-csiD(Ec) in C. glutamicum GSLA2G; whole-cell production
# T1 sequence (P76621 1-325): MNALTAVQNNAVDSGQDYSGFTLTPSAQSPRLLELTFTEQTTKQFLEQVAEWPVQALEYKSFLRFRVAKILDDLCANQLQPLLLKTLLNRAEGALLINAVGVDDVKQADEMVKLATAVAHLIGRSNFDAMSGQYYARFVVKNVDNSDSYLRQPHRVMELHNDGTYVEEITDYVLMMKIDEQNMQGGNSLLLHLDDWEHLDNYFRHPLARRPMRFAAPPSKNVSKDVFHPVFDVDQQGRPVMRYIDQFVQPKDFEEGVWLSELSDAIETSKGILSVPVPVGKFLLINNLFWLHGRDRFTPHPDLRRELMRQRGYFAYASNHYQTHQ
# CsiD (HPGluA) = molecular target: T2, CsiD (HPGluA) (Pseudomonas putida, UniProt Q88IU0); assay: as above; format: cell-based; details: whole cells, endogenously formed glutarate; Fe(II) and 2-oxoglutarate dependent; 96 h
# T2 construct: gene glaH; untagged, from pVWEx1-ldcC-csiD(Pp) in C. glutamicum GSLA2G; whole-cell production
# T2 sequence (Q88IU0 1-325): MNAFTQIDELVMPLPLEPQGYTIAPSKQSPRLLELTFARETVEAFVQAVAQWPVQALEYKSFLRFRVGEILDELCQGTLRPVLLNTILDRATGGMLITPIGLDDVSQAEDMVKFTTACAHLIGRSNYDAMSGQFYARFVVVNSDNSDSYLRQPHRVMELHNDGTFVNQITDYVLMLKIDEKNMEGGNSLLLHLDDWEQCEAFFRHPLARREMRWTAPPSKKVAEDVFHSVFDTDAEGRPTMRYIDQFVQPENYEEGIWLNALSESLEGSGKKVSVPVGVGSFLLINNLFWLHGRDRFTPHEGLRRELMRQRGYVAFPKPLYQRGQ
smiles,measurement,setting,value
O=C(O)CCCC(=O)O [glutarate],"L-2HG formation by engineered C. glutamicum, HPLC of supernatant",CsiD (HEGluA),the three strains produced and secreted L-2HG
same,"L-2HG formation by engineered C. glutamicum, HPLC of supernatant",CsiD (HPGluA),the three strains produced and secreted L-2HG
